Experiments:
[1] = tested on: PARP, Bax, Bcl-2 in AsPC-1 cells; test: PARP cleavage and Bax, Bcl-2 expression in AsPC-1 cells; assay type: cell-based
Description: FIG. 22 depicts effect of Lupeol treatment on PARP cleavage and on protein expression of Bax, Bcl-2 in AsPC-1 cells.

epidermal COX-2 protein = test: TPA-induced epidermal COX-2 protein expression (western blot); assay type: in vivo, mouse
Procedure: (§1) FIG. 4. Inhibitory effect of Lupeol on TPA-induced epidermal ODC, iNOS and COX-2 protein expression in CD-1 mice: At different times after treatment, the animals were sacrificed, epidermal protein lysate was prepared, and ODC and COX-2 protein expression were determined. Equal loading of protein was confirmed by stripping the immunoblot and reprobing it for β-actin. The immunoblots shown here are representative of three independent experiments with similar results. The values above each lane indicate relative density of the band normalized to β-actin.
The animals were shaved on the dorsal side of the skin, divided into four groups and treated topically on the shaved area with either 0.4 ml vehicle (acetone), or TPA (3.2 nmol/0.4 ml acetone/animal, v/v), or Lupeol (1 or 2 mg/0.2 ml acetone/animal, w/v) followed 30 min later with TPA (3.2 nmol/0.2 ml acetone/animal). Animals were sacrificed at different times point i.e. 6, 12, 24 and 48 h post TPA treatment. The epidermis was separated from the whole skin and homogenized in 0.1 M Tris-HCl buffer (pH 7.2) using a Polytron tissue homogenizer (Brinkmann Instruments, Westbury, N.Y., USA) at 100,000×g supernatant, and microsomal fractions were prepared as described earlier (Katiyar and Mukhtar, 1997). The sample of 6 h treatment group was used to assess the ODC activity as this time point has previously been shown for optimal induction of the enzyme (Katiyar er al., 1996).
Epidermis from the whole skin was separated as described earlier (Katiyar et al., 1999) and was homogenized in ice-cold lysis buffer [50 mM Tris-HCl, 150 mM NaCl, 1 mM EGTA, 1 mM EDTA, 20 mM NaF, 100 mM Na3VO4, 0.5% NP-40, 1% Triton X-100, 1 mM PMSF (pH 7.4)] with freshly added protease inhibitor cocktail, Protease Inhibitor Cocktail Set III (Calbiochem, La Jolla, Calif., USA). The homogenate was then centrifuged at 14,000×g for 25 minutes at 4° C. and the supernatant (total cell lysate) was collected, aliquoted and stored at −80° C. For the preparation of nuclear lysate, 0.2 g of the epidermis was homogenized in 1 ml of ice-cold phosphate-buffered saline (pH 7.6) and centrifuged at 12,000×g for 5 min at 4° C. […] The protein content in the lysates was measured by DC BioRad assay (BioRad Laboratories, Hercules, Calif.) as per the manufacturer's protocol.
(§2) For western blot analysis, 40 μg of the protein was resolved over 8-12% polyacrylamide gels and transferred to a nitrocellulose membrane. […] This was followed by incubation with anti-mouse or anti-rabbit secondary antibody horse-radish peroxidase (Amersham Life Sciences, Inc., USA) for 1 h and then washed several times and detected by chemiluminescence ECL kit, (Amersham Life Sciences, Inc., USA) and autoradiography using XAR-5 film obtained from Eastman Kodak Co. (Rochester, N.Y., USA). […]

IκBα protein = test: TPA-induced phosphorylation and degradation of IκBα (western blot); assay type: in vivo, mouse
Procedure: FIG. 6. Inhibitory effect of Lupeol on TPA-induced activation of IKKα, and phosphorylation and degradation of IκBα in CD-1 mice: At different times after treatment, the animals were sacrificed, epidermal cytosolic was prepared, and protein expression was determined. Equal loading was confirmed by stripping the immunoblot and reprobing it for β-actin. The immunoblots shown here are representative of three independent experiments with similar results. The values above each lane indicate relative density of the band normalized to β-actin.
(§3) The animals were shaved on the dorsal side of the skin, divided into four groups and treated topically on the shaved area with either 0.4 ml vehicle (acetone), or TPA (3.2 nmol/0.4 ml acetone/animal, v/v), or Lupeol (1 or 2 mg/0.2 ml acetone/animal, w/v) followed 30 min later with TPA (3.2 nmol/0.2 ml acetone/animal). […]
Epidermis from the whole skin was separated as described earlier (Katiyar et al., 1999) and was homogenized in ice-cold lysis buffer [50 mM Tris-HCl, 150 mM NaCl, 1 mM EGTA, 1 mM EDTA, 20 mM NaF, 100 mM Na3VO4, 0.5% NP-40, 1% Triton X-100, 1 mM PMSF (pH 7.4)] with freshly added protease inhibitor cocktail, Protease Inhibitor Cocktail Set III (Calbiochem, La Jolla, Calif., USA). […] The protein content in the lysates was measured by DC BioRad assay (BioRad Laboratories, Hercules, Calif.) as per the manufacturer's protocol. […]

CD-1 mouse = test: Preliminary dose study, primary biomarkers of tumor promotion; assay type: in vivo; settings: 0.25 and 0.5 mg of Lupeol per animal, topical; data not shown
Procedure: Studies from the inventors' laboratory and by other have shown that TPA application to mouse skin results in cutaneous edema (Katiyar et at, 1996; Liang et at, 2002). In the present study, the inventors evaluated the protective effects of topical application of Lupeol in TPA-mediated cutaneous edema in CD-1 mouse. The inventors tested four doses 0.25, 0.5, 1 and 2 mg of Lupeol per animal in the inventors' preliminary studies. […] The CD-1 mice were topically treated with Lupeol (1 and 2 mg/mouse) and 30 min later were topically treated with TPA (3.2 nmole/mouse). […] At least four determinations were made at different dorsal skin sites per mouse in each group. The data represents the mean±SE of eight mice (*p<0.01 vs TPA).

epidermal iNOS protein = test: TPA-induced epidermal iNOS protein expression (western blot); assay type: in vivo, mouse
Procedure: as §1
as §3, with “acetone/animal). Animals were sacrificed at different times point i.e. 6, 12, 24 and 48 h post TPA treatment.” for “acetone/animal).”
Epidermis from the whole skin was separated as described earlier (Katiyar et al., 1999) and was homogenized in ice-cold lysis buffer [50 mM Tris-HCl, 150 mM NaCl, 1 mM EGTA, 1 mM EDTA, 20 mM NaF, 100 mM Na3VO4, 0.5% NP-40, 1% Triton X-100, 1 mM PMSF (pH 7.4)] with freshly added protease inhibitor cocktail, Protease Inhibitor Cocktail Set III (Calbiochem, La Jolla, Calif., USA). […] The protein content in the lysates was measured by DC BioRad assay (BioRad Laboratories, Hercules, Calif.) as per the manufacturer's protocol.
as §2

In the case of `C=C(C)[C@@H]1CC[C@]2(C)CC[C@]3(C)[C@H](CC[C@@H]4[C@@]5(C)CC[C@H](O)C(C)(C)[C@@H]5CC[C@]43C)[C@@H]12` [Lupeol, Lup-20(29)-en-3β-ol], the “expression level of anti-apoptotic protein Bcl-2” value [1] is reported as “no change was observed”, the Bax protein expression ([1]; 48 hours) is reported as “increased Bax protein expression” and the “cleavage of PARP” value ([1]; 48 hours) is reported as “induced cleavage of PARP”. The “inhibition in TPA-caused increased epidermal COX-2 protein expression” value (epidermal COX-2 protein; Lupeol 1 mg/animal) was 40%, the “TPA-induced COX-2 protein level” value (epidermal COX-2 protein; Lupeol 2 mg/animal) was “restored the level of TPA-induced COX-2 protein almost to its basal level” and the “epidermal COX-2 protein expression after Lupeol alone” value (epidermal COX-2 protein; Lupeol alone 2 mg) was “did not produce any change”. For the same molecule, the “TPA-induced degradation of IκBα protein” value (IκBα protein; topical Lupeol 30 min prior to TPA) was “significant inhibition”, the “TPA-induced phosphorylation of IκB protein (Ser32)” value (IκBα protein; topical Lupeol prior to TPA) was “dose dependent inhibition” and the “effect on primary biomarkers of tumor promotion” value (CD-1 mouse) was “did not exhibit any significant effect”. The “inhibition against TPA-induced epidermal iNOS protein expression (densitometry)” value (epidermal iNOS protein; Lupeol 2 mg/animal) was 74% and the “epidermal iNOS protein expression after Lupeol alone” value (epidermal iNOS protein; Lupeol alone 2 mg) was “did not produce any change”.

Source: patent US8618082B2, “Lupeol anti-tumor agent and uses thereof” (Wisconsin Alumni Research Foundation, priority 2004, dated 2013)
